Data from ChEMBL document CHEMBL5338744, “Development and Characterization of Benzoselenazole Derivatives as Potent and Selective c-MYC Transcription Inhibitors” (J Med Chem, 2023).
The source made the active and inactive calls. The rule behind the calls is not given here.

Legend:
[1] = tested on: HCT-116; assay: Cytotoxicity against human HCT-116 cells assessed as reduction in cell viability incubated for 48 hrs by MTT assay; assay type: functional, cell-based; settings: HCT-116, 48 h
[2] = Cytotoxicity against human NCM460 cells assessed as reduction in cell viability incubated for 48 hrs by MTT assay; assay type: toxicity, cell-based
[3] = tested on: HepG2; assay: Cytotoxicity against human HepG2 cells assessed as reduction in cell viability incubated for 48 hrs by MTT assay; assay type: functional, cell-based; settings: HepG2, 48 h
[4] = molecular target: Quadruplex DNA; assay: Binding affinity to G-quadruplex DNA c-kit1 (unknown origin) by fluorescence spectroscopic analysis; assay type: nucleic-acid assay
[5] = Disruption of NM23-H2/c-MYC G quadruplex DNA (unknown origin) interaction incubated for 1 hr by ELISA
[6] = tested on: CA46; assay: Inhibition of c-MYC G-quadruplex exon 1 transcription in human CA46 cells incubated for 48 hrs by RT-qPCR analysis; assay type: functional, cell-based; settings: dose 1.25-2.5 µM
[7] = tested on: Quadruplex DNA; assay: Binding affinity to G-quadruplex DNA pu22 (unknown origin) assessed as melting temperature at 10 uM by circular dichroism analysis
[8] = tested on: HepG2; assay: Inhibition of colony formation in human HepG2 cells at 1 uM measured after 14 days by crystal violet staining based assay; assay type: functional, cell-based; settings: time 14.0 day
[9] = molecular target: Quadruplex DNA; assay: Binding affinity to G-quadruplex DNA htg22 (unknown origin) by fluorescence spectroscopic analysis; assay type: nucleic-acid assay
[10] = molecular target: Quadruplex DNA; assay: Binding affinity to G-quadruplex DNA VEGF (unknown origin) by fluorescence spectroscopic analysis; assay type: nucleic-acid assay
[11] = tested on: HepG2; assay: Disruption of NM23-H2/c-MYC G quadruplex DNA interaction in human HepG2 cells at 1.25 uM incubated for 1 hr by ChIP assay; assay type: cell-based
[12] = Toxicity in BALB/C-nu/nu mouse xenografted with human HepG2 cells assessed as sign of distress at 15 mg/kg, ip administered every other day for 28 days; assay type: organism-based; settings: in vivo, 672 h, time 28 day
[13] = tested on: HepG2; assay: Antitumor activity against human HepG2 cells xenografted in BALB/C-nu/nu mouse assessed as tumor growth inhibition at 15 mg/kg, ip administered every other day for 28 days; assay type: functional; settings: HepG2, 672 h, time 28 day, read-out: TGI
[14] = tested on: HepG2; assay: Inhibition of c-MYC transcription in human HepG2 cells up to 10 uM incubated for 48 hrs by RT-qPCR analysis; assay type: functional, cell-based
[15] = molecular target: Quadruplex DNA; assay: Binding affinity to G-quadruplex DNA ds26 (unknown origin) by fluorescence spectroscopic analysis; assay type: nucleic-acid assay
[16] = tested on: HepG2; assay: Antitumor activity against human HepG2 cells xenografted in BALB/C-nu/nu mouse assessed as decrease in c-MYC expression in tumor tissue at 15 mg/kg, ip administered every other day for 28 days by immunohistochemical analysis; assay type: functional, organism-based; settings: time 28.0 day
[17] = molecular target: Quadruplex DNA; assay: Binding affinity to G-quadruplex DNA pu22 (unknown origin) by fluorescence spectroscopic analysis; assay type: nucleic-acid assay
[18] = Toxicity in BALB/C-nu/nu mouse xenografted with human HepG2 cells assessed as changes in body weight at 15 mg/kg, ip administered every other day for 28 days; assay type: organism-based; settings: in vivo, 672 h, time 28 day
[19] = tested on: HepG2; assay: Downregulation of c-MYC expression level in human HepG2 cells incubated for 48 hrs by Western blotting analysis; assay type: functional, cell-based; settings: dose 0-10 µM
[20] = Toxicity in BALB/C-nu/nu mouse xenografted with human HepG2 cells assessed as abnormality in kidney at 15 mg/kg, ip administered every other day for 28 days by hematoxylin and eosin staining method; assay type: organism-based; settings: in vivo, 672 h, time 28 day
[21] = tested on: HepG2; assay: Induction of apoptosis in human hepG2 cells assessed as early apoptotic cells at 1.25 to 5 uM incubated for 48 hrs by Annexin V-FITC and propidium iodide staining based flow cytometric analysis; assay type: functional; settings: dose 1.25-5 µM
[22] = tested on: HepG2; assay: Antitumor activity against human HepG2 cells xenografted in BALB/C-nu/nu mouse assessed as reduction in tumor weight at 15 mg/kg, ip administered every other day for 28 days; assay type: functional, organism-based; settings: time 28.0 day
[23] = molecular target: Quadruplex DNA; assay: Binding affinity to G-quadruplex DNA HRAS (unknown origin) by fluorescence spectroscopic analysis; assay type: nucleic-acid assay
[24] = Toxicity in BALB/C-nu/nu mouse xenografted with human HepG2 cells assessed as abnormality in liver at 15 mg/kg, ip administered every other day for 28 days by hematoxylin and eosin staining method; assay type: organism-based; settings: in vivo, 672 h, time 28 day
[25] = Toxicity in BALB/C-nu/nu mouse xenografted with human HepG2 cells assessed as sign of discomfort at 15 mg/kg, ip administered every other day for 28 days; assay type: organism-based; settings: in vivo, 672 h, time 28 day
[26] = Cytotoxicity against human L02 cells assessed as reduction in cell viability incubated for 48 hrs by MTT assay; assay type: toxicity, cell-based
[27] = Toxicity in BALB/C-nu/nu mouse xenografted with human HepG2 cells assessed as abnormality in spleen at 15 mg/kg, ip administered every other day for 28 days by hematoxylin and eosin staining method; assay type: organism-based; settings: in vivo, 672 h, time 28 day
[28] = molecular target: Quadruplex DNA; assay: Binding affinity to G-quadruplex DNA pu22 mutant (unknown origin) by fluorescence spectroscopic analysis; assay type: nucleic-acid assay
[29] = tested on: HepG2; assay: Antitumor activity against human HepG2 cells xenografted in BALB/C-nu/nu mouse assessed as reduction in tumor volume at 15 mg/kg, ip administered every other day for 28 days; assay type: functional, organism-based; settings: time 28.0 day
[30] = Toxicity in BALB/C-nu/nu mouse xenografted with human HepG2 cells assessed as abnormality in heart at 15 mg/kg, ip administered every other day for 28 days by hematoxylin and eosin staining method; assay type: organism-based; settings: in vivo, 672 h, time 28 day
[31] = Toxicity in BALB/C-nu/nu mouse xenografted with human HepG2 cells assessed as sign of pain at 15 mg/kg, ip administered every other day for 28 days; assay type: organism-based; settings: in vivo, 672 h, time 28 day
[32] = Toxicity in nude mouse assessed as changes in body weight at 30 mg/kg administered for 5 days; assay type: organism-based; settings: in vivo, 120 h, time 5 day
[33] = Toxicity in BALB/C-nu/nu mouse xenografted with human HepG2 cells assessed as abnormality in lung at 15 mg/kg, ip administered every other day for 28 days by hematoxylin and eosin staining method; assay type: organism-based; settings: in vivo, 672 h, time 28 day
[34] = Toxicity in nude mouse assessed as mortality at 30 mg/kg administered for 5 days; assay type: organism-based; settings: in vivo, 120 h, time 5 day
[35] = tested on: HepG2; assay: Effect on cell cycle distribution in human HepG2 cells assessed as accumulation of cells in S phase at 1.25 to 5 uM incubated for 48 hrs by PI staining based flow cytometric analysis; assay type: functional; settings: dose 1.25-5 µM

CCn1c2ccccc2c2cc(/C=C/c3sc4ccc5ccccc5c4[n+]3C)ccc21
IC50 [1]: 2.5 µM
IC50 at 48 h [2]: 26.1 µM
IC50 [3]: 8.3 µM

CCn1c2ccccc2c2cc(/C=C/c3nc4c(ccc5ccccc54)[se]3)ccc21
IC50 [1]: > 100 µM
IC50 at 48 h [2]: > 100 µM
IC50 [3]: > 100 µM

CCn1c2ccccc2c2cc(/C=C/c3[se]c4ccc5ccccc5c4[n+]3C)ccc21
IC50 [1]: 9 µM
IC50 at 48 h [2]: 42.5 µM
IC50 [3]: 4.5 µM

CN(C)CCCn1c2ccccc2c2cc(/C=C/c3nc4ccccc4s3)ccc21
IC50 [1]: 42.9 µM
IC50 at 48 h [2]: > 100 µM
IC50 [3]: 21.3 µM

C(=C\c1nc2ccccc2s1)/c1ccc2c(c1)c1ccccc1n2Cc1ccccc1
IC50 [1]: > 100 µM
IC50 at 48 h [2]: > 100 µM
IC50 [3]: 53.2 µM

CCn1c2ccccc2c2cc(/C=C/c3nc4ccccc4o3)ccc21
IC50 [1]: 32.1 µM
IC50 at 48 h [2]: > 100 µM
IC50 [3]: 37.7 µM

C[n+]1c(/C=C/c2ccc3c(c2)c2ccccc2n3Cc2ccccc2)sc2ccccc21
IC50 [1]: 4.1 µM
IC50 at 48 h [2]: 45.6 µM
IC50 [3]: 7.4 µM

C[n+]1c(/C=C/c2ccc3c(c2)c2ccccc2n3Cc2ccccc2)oc2ccccc21
IC50 [1]: 32.3 µM
IC50 at 48 h [2]: > 100 µM
IC50 [3]: 96.2 µM

CN(C)CCCn1c2ccccc2c2cc(/C=C/c3nc4ccccc4o3)ccc21
IC50 [1]: 36.9 µM
IC50 at 48 h [2]: > 100 µM
IC50 [3]: 21.6 µM

CCn1c2ccccc2c2cc(/C=C/c3nc4ccccc4[se]3)ccc21
IC50 [1]: 19.5 µM
IC50 at 48 h [2]: > 100 µM
IC50 [3]: 13.4 µM

CCn1c2ccccc2c2cc(/C=C/c3nc4c(ccc5ccccc54)s3)ccc21
IC50 [1]: > 100 µM
IC50 at 48 h [2]: > 100 µM
IC50 [3]: 58.7 µM

C(=C\c1nc2ccccc2o1)/c1ccc2c(c1)c1ccccc1n2Cc1ccccc1
IC50 [1]: 25.9 µM
IC50 at 48 h [2]: > 100 µM
IC50 [3]: 5.7 µM

CCn1c2ccccc2c2cc(/C=C/c3nc4ccccc4s3)ccc21
IC50 [1]: > 100 µM
IC50 at 48 h [2]: > 100 µM
IC50 [3]: 52.1 µM

CN(C)CCCn1c2ccccc2c2cc(/C=C/c3[se]c4ccccc4[n+]3C)ccc21
IC50 [1]: 15 µM
IC50 at 48 h [2]: 87.7 µM
IC50 [3]: 26.2 µM

CN(C)CCCn1c2ccccc2c2cc(/C=C/c3nc4ccccc4[se]3)ccc21
IC50 [1]: 34.4 µM
IC50 at 48 h [2]: > 100 µM
IC50 [3]: > 100 µM

C[n+]1c(/C=C/c2ccc3c(c2)c2ccccc2n3Cc2ccccc2)[se]c2ccccc21.[I-]
Kd [4]: 9.6 µM
IC50 [5]: 9.8 µM
inhibition [6]: Dose-Dependent Effect
Tm [7]: 78.3 °C
IC50 [1]: 4.1 µM
inhibition [8]: Active
Kd [9]: > 20 µM
IC50 at 48 h [2]: 77.6 µM
Kd [10]: 17.9 µM
Activity [11]: Active
Activity [12]: Non-Toxic
inhibition in vivo at 15 mg/kg [13]: 65.8%
inhibition [14]: Active
Kd [15]: > 20 µM
Activity [16]: Active
Kd [17]: 0.9 µM
Activity [18]: Non-Toxic
Activity [19]: Dose-Dependent Effect
Activity [20]: Non-Toxic
Activity [21]: 1.7%
Activity [22]: Active
IC50 [3]: 3.5 µM
Kd [23]: > 20 µM
Activity [24]: Non-Toxic
Activity [25]: Non-Toxic
IC50 at 48 h [26]: > 100 µM
Activity [27]: Non-Toxic
Kd [28]: > 20 µM
Activity [29]: Active
Activity [30]: Non-Toxic
Activity [31]: Non-Toxic
Activity [32]: Toxic
Activity [33]: Non-Toxic
Activity [34]: Toxic
Activity [35]: 14.6%

CN(C)CCCn1c2ccccc2c2cc(/C=C/c3oc4ccccc4[n+]3C)ccc21
IC50 [1]: 4.7 µM
IC50 at 48 h [2]: 35.6 µM
IC50 [3]: 5.9 µM

CCn1c2ccccc2c2cc(/C=C/c3oc4ccccc4[n+]3C)ccc21
IC50 [1]: 46.7 µM
IC50 at 48 h [2]: > 100 µM
IC50 [3]: 43.3 µM

CCn1c2ccccc2c2cc(/C=C/c3nc4c(ccc5ccccc54)o3)ccc21
IC50 [1]: > 100 µM
IC50 at 48 h [2]: > 100 µM
IC50 [3]: > 100 µM

CCn1c2ccccc2c2cc(/C=C/c3sc4ccccc4[n+]3C)ccc21
IC50 [1]: 4 µM
IC50 at 48 h [2]: 39.3 µM
IC50 [3]: 5.7 µM

CCn1c2ccccc2c2cc(/C=C/c3[se]c4ccccc4[n+]3C)ccc21
Kd [4]: 6.5 µM
Tm [7]: 80.1 °C
IC50 [1]: 3.4 µM
Kd [9]: 8.8 µM
IC50 at 48 h [2]: 29.2 µM
Kd [10]: 7.6 µM
inhibition [14]: Active
Kd [15]: > 20 µM
Kd [17]: 0.4 µM
Activity [19]: Dose-Dependent Effect
IC50 [3]: 1.6 µM
Kd [23]: > 20 µM
IC50 at 48 h [26]: 27.3 µM
Kd [28]: > 20 µM

CN(C)CCCn1c2ccccc2c2cc(/C=C/c3sc4ccccc4[n+]3C)ccc21
IC50 [1]: 14.7 µM
IC50 at 48 h [2]: 30.2 µM
IC50 [3]: 11.3 µM

CCn1c2ccccc2c2cc(/C=C/c3oc4ccc5ccccc5c4[n+]3C)ccc21
IC50 [1]: 26.3 µM
IC50 at 48 h [2]: > 100 µM
IC50 [3]: 93.3 µM

C(=C\c1nc2ccccc2[se]1)/c1ccc2c(c1)c1ccccc1n2Cc1ccccc1
IC50 [1]: > 100 µM
IC50 at 48 h [2]: > 100 µM
IC50 [3]: > 100 µM
